{"source": "patent US5561119A", "about": "“Glycosylated prodrugs, their method of preparation and their uses” (Laboratoires Hoechst, priority 1991, dated 1996)", "key": {"[1]": {"test": "incubation of 60 with α-galactosidase from unroasted coffee beans (HPLC)", "assay_type": "biochemical, [550, 560, 561]", "conditions": "pH 6.8 (0.02M phosphate buffer), 37° C., 0.04 U/ml enzyme, 60 at 660 μg/ml"}, "[2]": {"test": "Proliferation test (MTT reduction) in L1210 tumoral cells", "assay_type": "cell-based, [569, 570, 571, 572, 573, 575]", "conditions": "72 hours, 37° C."}, "[3]": {"test": "hydrolysis of acetates in vivo", "conditions": "6, 13 and 48a to 7, 14 and 48b respectively"}, "[4]": {"test": "hydrolysis of 48b by α-galactosidase (HPLC)", "assay_type": "biochemical, [550, 552, 554]", "conditions": "placental alpha-galactosidase; α-galactosidase from human placenta, 0.075M N-acetylgalactosamine, 37° C., pH 5 (0.02M phosphate buffer); read-out: half-life of hydrolysis of the glycoside (converted)"}, "stability in plasma": {"test": "stability in plasma", "assay_type": "in vitro ADME"}, "[5]": {"test": "cleavability of glycosylated prodrugs by recombinant β-glucuronidase (reversed-phase HPLC)", "conditions": "for half-life: beta-glucuronidase; for t1/2 arm: time for conversion of 50% of the anthracycline/arm compound to active anthracycline, 37° C., 1 U/ml, pH 7.2 to 6.8"}, "[6]": {"test": "cleavability of glycosylated prodrugs by α-galactosidase from coffee beans (reversed-phase HPLC)", "assay_type": "biochemical, [595, 596, 597]", "conditions": "37° C., 1 U/ml, pH 7.2 to 6.8"}, "[7]": {"conditions": "beta-glucuronidase"}}, "data": [{"compound": "COc1cccc2c1C(=O)c1c(O)c3c(c(O)c1C2=O)C[C@@](O)(C(C)=O)C[C@@H]3O[C@H]1C[C@H](NC(=O)OCc2ccc(O)c(Cl)c2)[C@H](O)[C@H](C)O1", "note": "[deglycosidated derivative 60]", "values": [{"measurement": "detection of the deglycosidated derivative", "setting": "[1]", "value": "not detected because of its high rate of disappearance"}]}, {"compound": "COc1cccc2c1C(=O)c1c(O)c3c(c(O)c1C2=O)C[C@@](O)(C(C)=O)C[C@@H]3O[C@H]1C[C@H](NC(=O)OCc2ccc(O[C@H]3O[C@H](COC(C)=O)[C@H](OC(C)=O)[C@H](OC(C)=O)[C@H]3OC(C)=O)cc2)[C@H](O)[C@H](C)O1", "note": "[derivative 6, N-[4-(2,3,4,6-Tetra-O-acetyl-α-D-galactopyranosyl)benzyloxycarbonyl]daunorubicin]", "values": [{"measurement": "IC50", "setting": "[2]", "value": "> 1", "unit": "µg/mL"}, {"measurement": "hydrolysis in vivo to the deacetylated prodrug", "setting": "[3]", "value": "hydrolyzed in vivo"}]}, {"compound": "COc1cccc2c1C(=O)c1c(O)c3c(c(O)c1C2=O)C[C@@](O)(C(C)=O)C[C@@H]3O[C@H]1C[C@H](NC(=O)OCc2ccc(O[C@H]3O[C@H](CO)[C@H](O)[C@H](O)[C@H]3O)cc2)[C@H](O)[C@H](C)O1", "note": "[derivative 7, N-[4-(α-D-Galactopyranosyl)benzyloxycarbonyl]daunorubicin]", "values": [{"measurement": "IC50", "setting": "[2]", "value": "> 1", "unit": "µg/mL"}]}, {"compound": "COc1cccc2c1C(=O)c1c(O)c3c(c(O)c1C2=O)C[C@@](O)(C(C)=O)C[C@@H]3O[C@H]1C[C@H](NC(=O)OCc2ccccc2O[C@H]2O[C@H](COC(C)=O)[C@H](OC(C)=O)[C@H](OC(C)=O)[C@H]2OC(C)=O)[C@H](O)[C@H](C)O1", "note": "[derivative 13, N-[2-(2,3,4,6-Tetra-O-acetyl-α-D-galactopyranosyl)benzyloxycarbonyl]daunorubicin]", "values": [{"measurement": "IC50", "setting": "[2]", "value": "> 1", "unit": "µg/mL"}, {"measurement": "hydrolysis in vivo to the deacetylated prodrug", "setting": "[3]", "value": "hydrolyzed in vivo"}]}, {"compound": "COc1cccc2c1C(=O)c1c(O)c3c(c(O)c1C2=O)C[C@@](O)(C(C)=O)C[C@@H]3O[C@H]1C[C@H](NC(=O)OCc2ccccc2O[C@H]2O[C@H](CO)[C@H](O)[C@H](O)[C@H]2O)[C@H](O)[C@H](C)O1", "note": "[derivative 14, N-[2-(α-D-Galactopyranosyl)benzyloxycarbonyl]daunorubicin]", "values": [{"measurement": "IC50", "setting": "[2]", "value": "> 1", "unit": "µg/mL"}]}, {"compound": "COc1cccc2c1C(=O)c1c(O)c3c(c(O)c1C2=O)C[C@@](O)(C(C)=O)C[C@@H]3O[C@H]1C[C@H](NC(=O)OCc2ccc(O[C@@H]3O[C@H](C(=O)O)[C@@H](O)[C@H](O)[C@H]3O)cc2)[C@H](O)[C@H](C)O1", "note": "[derivative 22, N-(4-Hydroxybenzyloxycarbonyl)daunorubicin β-D-glucuronide]", "values": [{"measurement": "IC50", "setting": "[2]", "value": "> 10", "unit": "µg/mL"}]}, {"compound": "COc1cccc2c1C(=O)c1c(O)c3c(c(O)c1C2=O)C[C@@](O)(C(C)=O)C[C@@H]3O[C@H]1C[C@H](NC(=O)OCc2ccccc2O[C@@H]2O[C@H](C(=O)O)[C@@H](O)[C@H](O)[C@H]2O)[C@H](O)[C@H](C)O1", "note": "[derivative 27c, N-[2-((β-D-Glucopyranosyl)uronic acid)benzyloxycarbonyl]daunorubicin]", "values": [{"measurement": "IC50", "setting": "[2]", "value": "> 1", "unit": "µg/mL"}]}, {"compound": "COc1cccc2c1C(=O)c1c(O)c3c(c(O)c1C2=O)C[C@@](O)(C(C)=O)C[C@@H]3O[C@H]1C[C@H](NC(=O)OCc2cc([N+](=O)[O-])ccc2O[C@H]2O[C@H](COC(C)=O)[C@H](OC(C)=O)[C@H](OC(C)=O)[C@H]2OC(C)=O)[C@H](O)[C@H](C)O1", "note": "[derivative 48a, N-[2-(2,3,4,6-Tetra-O-acetyl-α-D-galactopyranosyl)-5-nitrobenzyloxycarbonyl]daunorubicin]", "values": [{"measurement": "IC50", "setting": "[2]", "value": "> 10", "unit": "µg/mL"}, {"measurement": "hydrolysis in vivo to the deacetylated prodrug", "setting": "[3]", "value": "hydrolyzed in vivo"}]}, {"compound": "COc1cccc2c1C(=O)c1c(O)c3c(c(O)c1C2=O)C[C@@](O)(C(C)=O)C[C@@H]3O[C@H]1C[C@H](NC(=O)OCc2cc([N+](=O)[O-])ccc2O[C@H]2O[C@H](CO)[C@H](O)[C@H](O)[C@H]2O)[C@H](O)[C@H](C)O1", "note": "[derivative 48b, N-[2-(α-D-Galactopyranosyl)-5-nitrobenzyloxycarbonyl]daunorubicin]", "values": [{"measurement": "half-life", "setting": "[4]", "value": 60, "unit": "min"}, {"measurement": "stability in plasma", "setting": "stability in plasma", "value": "stable in plasma"}, {"measurement": "IC50", "setting": "[2]", "value": "> 1", "unit": "µg/mL"}]}, {"compound": "COc1cccc2c1C(=O)c1c(O)c3c(c(O)c1C2=O)C[C@@](O)(C(C)=O)C[C@@H]3O[C@H]1C[C@H](NC(=O)OCc2cc([N+](=O)[O-])ccc2O[C@@H]2O[C@H](C(=O)O)[C@@H](O)[C@H](O)[C@H]2O)[C@H](O)[C@H](C)O1", "note": "[derivative 54c, N-[2-((β-D-Glucopyranosyl)uronic acid)-5-nitrobenzyloxycarbonyl]daunorubicin]", "values": [{"measurement": "half-life", "setting": "[5]", "value": 41.4, "unit": "min"}, {"measurement": "t1/2 arm", "setting": "[5]", "value": "5,30 h"}]}, {"compound": "COc1cccc2c1C(=O)c1c(O)c3c(c(O)c1C2=O)C[C@@](O)(C(C)=O)C[C@@H]3O[C@H]1C[C@H](NC(=O)OCc2ccc(O[C@H]3O[C@H](CO)[C@H](O)[C@H](O)[C@H]3O)c(Cl)c2)[C@H](O)[C@H](C)O1", "note": "[derivative 60, N-[3-Chloro-4-(α-D-galactopyranosyl)benzyloxycarbonyl]daunorubicin]", "values": [{"measurement": "half-life", "setting": "[6]; alpha-galactosidase, time for cleavage of 50% of the glycoside, read-out: t1/2 cleavage of the glycoside (converted)", "value": 1.2, "unit": "min"}, {"measurement": "t1/2 arm", "setting": "[6]; time for conversion of 50% of the anthracycline/arm compound to active anthracycline", "value": "< 0,08 h"}]}, {"compound": "COc1cccc2c1C(=O)c1c(O)c3c(c(O)c1C2=O)C[C@@](O)(C(C)=O)C[C@@H]3O[C@H]1C[C@H](NC(=O)OCc2ccc(O[C@@H]3O[C@H](C(=O)O)[C@@H](O)[C@H](O)[C@H]3O)c([N+](=O)[O-])c2)[C@H](O)[C@H](C)O1", "note": "[derivative 64c, N-(4-Hydroxy-3-nitrobenzyloxycarbonyl)daunorubicin β-D-glucuronide]", "values": [{"measurement": "half-life", "setting": "[5]", "value": 25.2, "unit": "min"}, {"measurement": "t1/2 arm", "setting": "[5]", "value": "< 0,08 h"}]}, {"compound": "COc1cc(O[C@@H]2O[C@H](C(=O)O)[C@@H](O)[C@H](O)[C@H]2O)c(COC(=O)N[C@H]2C[C@H](O[C@H]3C[C@](O)(C(C)=O)Cc4c(O)c5c(c(O)c43)C(=O)c3c(OC)cccc3C5=O)O[C@@H](C)[C@H]2O)cc1[N+](=O)[O-]", "note": "[derivative 68c, N-[4-Methoxy-5-nitro-2-((β-D-glucopyranosyl)uronic acid)benzyloxycarbonyl]daunorubicin]", "values": [{"measurement": "half-life", "setting": "[5]", "value": 113, "unit": "min"}, {"measurement": "t1/2 arm", "setting": "[5]", "value": "0,75 h"}]}, {"compound": "COc1cccc2c1C(=O)c1c(O)c3c(c(O)c1C2=O)CC(O)(C(=O)CO)CC3OC1CC(NC(=O)OCc2ccc(OC3OC(C(=O)O)C(O)C(O)C3O)c([N+](=O)[O-])c2)C(O)C(C)O1", "note": "[derivative 70c, N-[4-hydroxy-3-nitro-benzyloxy-carbonyl) doxorubicin β-D-glucuronide]", "values": [{"measurement": "t1/2 cleavage of the glycoside", "setting": "[7]", "value": "0,92 h"}]}, {"compound": "COc1cccc2c1C(=O)c1c(O)c3c(c(O)c1C2=O)C[C@@](O)(C(C)=O)C[C@@H]3O[C@H]1C[C@H](NC(=O)OCc2cc(Cl)ccc2O[C@@H]2O[C@H](C(=O)O)[C@@H](O)[C@H](O)[C@H]2O)[C@H](O)[C@H](C)O1", "note": "[derivative 82c, N-[2-((β-D-glucopyranosyl)uronic acid)-5-chlorobenzyloxycarbonyl]daunorubicin]", "values": [{"measurement": "half-life", "setting": "[5]", "value": 244, "unit": "min"}, {"measurement": "t1/2 arm", "setting": "[5]", "value": "12,00 h"}]}, {"compound": "COc1cccc2c1C(=O)c1c(O)c3c(c(O)c1C2=O)C[C@@](O)(C(=O)CO)C[C@@H]3O[C@H]1C[C@H](N)[C@H](O)[C@H](C)O1", "note": "[doxorubicin, reference compound]", "values": [{"measurement": "IC50", "setting": "[2]", "value": 0.02, "unit": "µg/mL"}]}]}
